# Reference: patent US20110097773A1, “METHOD FOR PRODUCING BUTANOL USING EXTRACTIVE FERMENTATION” (BUTAMAX(TM) ADVANCED BIOFUELS LLC, priority 2009, published 2011)
# Columns and labels:
# [1] = Partition coefficient for isobutanol between extractant (organic phase) and fermentation medium (aqueous phase); type: physicochemical; details: isobutanol partition coefficient (organic/aqueous) as percentage of average value for oleyl alcohol (Comparative Example A); 40 g/L initial isobutanol, 30° C.
# Protocol: (§1) Each extractant was contacted with a fermentation medium and isobutanol as described below to determine the partition coefficient of the extractant. The biocompatibility of the extractant was also assessed by determining the glucose utilization rate of the microorganism during the extraction.
# The following experimental procedure was used. […] When the OD600 reached about 0.4, the glucose concentration in the culture broth was analyzed rapidly by a Select Biochemistry Analyzer and extra glucose was added to reach a final concentration of about 25 g/L. The culture broth was divided into 125 mL flasks, each containing 75 mL of the culture broth. After one hour of incubation at 30° C. with shaking at 200 rpm, 3.75 mL of isobutanol was added to each flask in order to bring the initial isobutanol concentration in the aqueous phase to 40 g/L. The incubation of the biphasic fermentation medium comprising an aqueous phase and a butanol-containing organic phase was continued at 30° C. with shaking at 100 rpm for 8 hours. The aqueous and organic phases in each flask were separated by decantation.
# Partition coefficients for the isobutanol distribution between the organic and aqueous phases were calculated from the known amount of isobutanol added to the flask and the isobutanol concentration data measured for the aqueous phase. The concentration of isobutanol in the extractant phase was determined by the mass balance. The partition coefficient was determined as the ratio of the isobutanol concentrations in the organic and the aqueous phases, i.e., Kp=[Isobutanol]Organic phase/[isobutanol]Aqueous phase.
# (§2) A value greater than 100% indicates a result which is numerically larger than that for oleyl alcohol. A value less than 100% indicates a result which is numerically smaller than that for oleyl alcohol. A value of 100% indicates a result which is the same as that for oleyl alcohol.
# (§3) The extractants listed in Table 2 were evaluated using the procedure described above, but with the following modifications. After the culture broth was divided into 125 mL flasks, each containing 75 mL of the culture broth, oleyl alcohol was added as the first solvent to each flask in the amount shown in Table 2.
# as §2
# S. cerevisiae BY4741 = experiment: Biocompatibility of extractants: glucose utilization rate of the microorganism during extraction; type: cell-based, Saccharomyces cerevisiae; details: percentage of average value for oleyl alcohol (Comparative Example A); 25 mL extractant/75 mL culture broth, 40 g/L initial isobutanol, 30° C., 8 hours
# Protocol: as §1
# The following experimental procedure was used. In these experiments the amount of ethanol depended on the amount of glucose consumption but typical ethanol values were in the range of 10-15 g/L. The presence of ethanol in these concentrations is not expected to impact glucose consumption and the partitioning of butanol into the extractant. Seed shake flasks containing 250 mL of yeast extract/peptone/dextrose (YPD) medium were inoculated with 150 μL of S. cerevisiae BY4741 inoculum and incubated for about 14 hours at 30° C. with shaking at 250 rpm in a table top shaker (Innova 4230, New Brunswick scientific, Edison, N.J.). When the OD600 reached about 0.4, the glucose concentration in the culture broth was analyzed rapidly by a Select Biochemistry Analyzer and extra glucose was added to reach a final concentration of about 25 g/L. The culture broth was divided into 125 mL flasks, each containing 75 mL of the culture broth. After one hour of incubation at 30° C. with shaking at 200 rpm, 3.75 mL of isobutanol was added to each flask in order to bring the initial isobutanol concentration in the aqueous phase to 40 g/L. The incubation of the biphasic fermentation medium comprising an aqueous phase and a butanol-containing organic phase was continued at 30° C. with shaking at 100 rpm for 8 hours. The aqueous and organic phases in each flask were separated by decantation. The aqueous phase was centrifuged (2 minutes on 13,000 rpm with an Eppendorf centrifuge model 5415R) to remove cells and the supernatant analyzed for glucose, ethanol, and isobutanol by HPLC.
# Glucose utilization rates were calculated by noting the difference in glucose concentrations between samples and the time between samples and computing a rate accordingly, for example ([glucose]t2−[glucose]t1)/(t2−t1) where t1 refers to a time earlier than t2 and [glucose] means the concentration of glucose.
# Comparative Example A was repeated three times and the results averaged. For the extractants of Comparative Examples A-G, the partition coefficient for isobutanol and the glucose utilization rate are expressed below in Table 3 as percentages of the average values determined for oleyl alcohol (Comparative Example A). A value greater than 100% indicates a result which is numerically larger than that for oleyl alcohol. A value less than 100% indicates a result which is numerically smaller than that for oleyl alcohol. A value of 100% indicates a result which is the same as that for oleyl alcohol. As disclosed in US Patent Application Publication No. 2009-0305370 A1, oleyl alcohol performed well in single solvent extractive fermentations for isobutanol production.
# as §3
# For the extractants of Examples 1-15, the partition coefficients for isobutanol and the glucose utilization rate are expressed below in Table 3, together with the results for Comparative examples A-G, as percentages of the average values determined for oleyl alcohol (Comparative Example A). A value greater than 100% indicates a result which is numerically larger than that for oleyl alcohol. A value less than 100% indicates a result which is numerically smaller than that for oleyl alcohol. A value of 100% indicates a result which is the same as that for oleyl alcohol.
% KP [1],SMILES,% Glucose Utilization Rate (S. cerevisiae BY4741)
127.0%,"CCCCCCCCCCCO [Comparative Ex. C, 1-Undecanol]",0%
139.0%,"CCCCCCCCCC(C)O (stereo not drawn) [Comparative Ex. D, 2-Undecanol]",0%
132.6%,"CCCCCCCCC=O [Comparative Ex. E, 1-Nonanal]",0%
–,"CCCCCCCCCO [Comparative Ex. B, 1-Nonanol]",0%
139.0%,"CCCCCCCCCCO [Comparative Ex. F, 1-Decanol]",0%
–,"CCCCCCCCCCCCO [Comparative Ex. G, 1-Dodecanol]",84%
100%,"CCCCCCCC/C=C\CCCCCCCCO [Comparative Ex. A, Oleyl Alcohol]",100%
